We go through three compounds from patent publication US20180064739A1, “NUTRITIONAL COMPOSITION WITH HUMAN MILK OLIGOSACCHARIDES AND USES THEREOF” (Mead Johnson Nutrition Company, priority 2016, published 2018).

Experiment [1] deals with ganglioside-bound sialic acid in corpus callosum and cerebellum. As to the kind of experiment: Ganglioside-bound sialic acid in brain regions of suckling pigs fed sialyllactose diets (periodic acid-resorcinol reaction). Format: in vivo. As to conditions: diet supplemented with 4 g/L, fed 21 days. An excerpt:
This study sought to determine whether administration of certain isomers of sialyllactose could increase or enrich sialic acid in the brain tissues of neonatal pigs. Indeed, accumulation of sialic acid in the brain during neonatal development is associated with increased cognitive functioning. Further, sialic acid (SA) is a key component of human milk oligosaccharides and neural tissues. SA accumulates in the brain rapidly during neonatal development and is thought to play an important role in brain development. […] Piglets readily consumed the formula, grew at normal rates and remained clinically healthy throughout the experiment.
After 21 days, the pigs were euthanized and the left hemisphere of the brain was dissected into cerebrum, cerebellum, corpus callosum, and hippocampus regions. […] The lipid- and protein-bound sialic acid contents from each sample were determined using a modified periodic acid-resorcinol reaction. Free sialic acid was calculated by difference. Briefly, the sialic from the protein and ganglioside fractions was first oxidized using the periodic acid reagent, which released the oxidized sialic-aldehyde derivative quantitatively. The released sialic derivative was measured colorimetrically using the resorcinol-HCl reagent.

The subject of experiment [2] is microbial taxa of the proximal and distal colon. As to the kind of experiment: Gut microbiome of suckling pigs, 16S rDNA Illumina sequencing of colon digesta. The experiment is classed as in vivo. As to conditions: 21 days. From the text:
This study sought to determine whether administration of certain isomers of sialyllactose could modulate the microbiome of developing neonatal pigs, i.e. suckling pigs. Indeed, selectively promoting beneficial gut microbiota in preterm and term infants, toddlers, and children may provide long-term health benefits, including neuronal benefits. Briefly, day-old pigs were randomized among 6 diets; (1) control diet, (2) diet supplemented with 2 g/L of 3′-sialyllactose, (3) diet supplemented with 4 g/L of 3′-sialyllactose, (4) diet supplemented with 2 g/L of 6′-sialyllactose, (5) diet supplement with 4 g/L of 6′-sialyllactose, and (6) 2 g/L PDX and 2 g/L GOS. The pigs were fed three times per day for 21 days.
Pigs were euthanized and intestinal digesta were analyzed from the proximal and distal colon. The microbiome analysis was performed via 16S rDNA Illumina sequencing. Briefly, DNA was extracted from digesta using the UltraClean Tissue and Cells DNA Isolation Kit (MoBio). The DNA was then cleaned using PowerClean DNA Clean-Up Kit (ThermoFisher Scientific, Waltham, Mass.) and quantified with the Qubit Quant-iT dsDNA Broad- Range Kit (MoBio Laboratories, Carlsbad, Calif.). The V4 region of 16S ribosomal RNA was amplified using primers 515F (5#-GTGCCAGCMGCCGCGGTAA-3#) and 806R (5#-[…]-3#). Resulting PCR products were sequenced using Illumina MiSeq paired-end technology. High-quality sequences were searched against Greengenes database and then clustered at 97% sequence identity to form operational taxonomic units (OTUs) and assigned taxonomic classification. Similarity between microbial communities was assessed using the Bray-Curtis distance metric and then visualized using principal coordinates analysis. To test the community differences between microbiota between all groups of samples, we used the Adonis function. Because all genera were considered in the test, the Bonferroni multiple comparison correction was applied.

Experiment [3] has as its system heat shock protein 72 (Hsp72). As to the kind of experiment: Liver Hsp72 after inescapable tail shock stress in diet-fed rats. The experiment is classed as in vivo, male F344 rats. As to conditions: diet for 4 weeks, after stressor exposure. An excerpt: This study sought to determine whether the administration of PDX, GOS, and lactoferrin could modulate stress-evoked responses and the concentration of inflammatory cytokines and chemokines in blood or tissue. Briefly, male F344 rats were pair-housed in a barrier facility and fed experimental or control diet for 4 weeks. The diet formulations were as follows: (1) control, (2) diet supplemented with lactoferrin (LAC), (3) diet supplemented with GOS and PDX, and (4) diet supplemented with GOS, PDX, and Lactoferrin.
The rats were pair housed in standard Nalgene Plexiglas cages (45 cm×25.2 cm×14.7 cm) and had ad libitum access to food and water for the duration of the experimental procedures. Food consumption was monitored three times per week by weighing the chow pellets within each food hopper. Following 4 weeks on the diets, rats were exposed to inescapable (IS) or remained within their home cage undisturbed (home cage controls; HCC). IS consisted of 100, 1.5 mA inescapable tail shocks administered at variable intervals over a period of approximately 2 hours. Rats exposed to IS were restrained in Broome-style Plexiglas tubes (23.4 cm in length and 7.0 cm in diameter) with their tails exposed for electrode attachment.
Furthermore, in the same study heat shock protein 72 (Hsp72) was measured in the liver. […]

The mark [4] stands for this setting: supplemented diet, colon digesta.

Consider `CC(=O)N[C@H]1[C@H]([C@H](O)[C@H](O)CO)O[C@@](O[C@H]2[C@@H](O)[C@@H](CO)O[C@@H](O[C@H]3[C@H](O)[C@@H](O)C(O)O[C@@H]3CO)[C@@H]2O)(C(=O)O)C[C@@H]1O` (stereo partly shown) [3′-sialyllactose], for which, in experiment [1], the “increase of ganglioside-bound sialic acid in the cerebellum compared to control pigs” value is recorded as “over 10%”.

On to `CC(=O)N[C@H]1[C@H]([C@H](O)[C@H](O)CO)O[C@@](OC[C@H]2O[C@@H](O[C@H]3[C@H](O)[C@@H](O)[C@H](O)O[C@@H]3CO)[C@H](O)[C@@H](O)[C@H]2O)(C(=O)O)C[C@@H]1O` [6′-sialyllactose], for which the “bacterial taxa of Collinsella aerofaciens, Ruminococcus, Faecalibacterium and Prevotella” value in experiment [2] (diet supplemented with 4 g/L, compared to the control diet) is “increase”. Also, the “microbiome difference versus control diet” value in experiment [2] (diet supplemented with 4 g/L, proximal and distal colon) is “statistically significant microbiome difference”. In experiment [2] (diet supplemented with 4 g/L, versus control diet), the “bacterial taxa belonging to the phyla Actinobacteria and Bacteroidetes” value was “statistically significant increase”. In experiment [2] (setting [4]), the “taxa of the family Enterobacteriaceae and Enterococaceae, fold lower than in the control diet” value is 2.3 fold; the “taxa of the family Lachnospiraceael and order Lactobacillales, fold lower than in the control diet” value worked out at 4 fold.

Consider lactoferrin, for which the “effect of stress on liver Hsp72 expression” value in experiment [3] is on record as “reduction in the effect of stress”.
